Data as given in US20210093730A1, “BIOMARKERS FOR ANTIBODY-DRUG CONJUGATE MONOTHERAPY OR COMBINATION THERAPY” (Immunomedics, Inc., priority 2019, published 2021).
“And” between values parts separate entries of the source, which are not always exact repeats. Equal entries are not always repeated. Where two headings read alike, the source gives them in different places.

Legend:
[1] = test system: metastatic urothelial cancer; conditions: cited from earlier work
[2] = test system: platinum-resistant urothelial carcinoma; test: Clinical trial of sacituzumab govitecan in 6 patients with metastatic platinum-resistant urothelial carcinoma (PRUC)
Procedure: Response was assessed using the Response Evaluation Criteria in Solid Tumors, version 1.1.

[3] = test system: metastatic triple-negative breast cancer (TNBC); test: Phase I/II clinical trial (NCT01631552) of sacituzumab govitecan in relapsed/refractory metastatic TNBC; assay type: in vivo, human
Procedure: Patients with relapsed/refractory TNBC who had previously failed at at least one prior line of therapy were enrolled in a single-arm, multicenter trial (Bardia et al., 2019, N Engl J Med 380:741-51). The present study reports on 108 patients who had failed at least two prior lines of therapy (median three prior therapies) (Bardia et al., 2019, N Engl J Med 380:741-51). […] Of the 108 patients, 107 were female and 1 was male, with a median age of 55. […] Tumor staging was performed by computed tomography (CT) and MRI at baseline, followed up at 8 week intervals from the start of treatment until disease progression.

[4] = Pharmacokinetics in patient serum: ELISA for IgG and intact conjugate, HPLC for SN-38; assay type: in vivo, human
Procedure: SN-38 was measured by HPLC.

[5] = test system: metastatic small-cell lung cancer
Description: Previous therapy had to be completed at least 4 weeks before enrollment.
Treatment was continued until disease progression, initiation of alternative anticancer therapy, unacceptable toxicity, or withdrawal of consent.
The primary endpoint was the proportion of patients with a confirmed objective response, assessed approximately every 8 weeks until disease progression, by each institution's radiology group or a contracted local radiology service. […] Partial (PR) or complete responses (CR) required confirmation within 4 to 6 weeks after the initial response. Clinical benefit rate (CBR) is defined as those patients with an objective response plus stable disease (SD)≥4 months. Survival was monitored every 3 months until death or withdrawal of consent.
Safety evaluations were conducted during scheduled visits or more frequently if warranted.
The frequency and severity of adverse events (AEs) were defined by MedDRA Preferred Term and System Organ Class (SOC) version 10, with severity assessed by NCI-CTCAE v4.03.
The protocol provided that objective response rates (ORR) were determined for patients who received ≥2 doses (1 cycle) and had their initial 8-week CT assessment. Duration of response is defined in accordance to RECIST 1.1 criteria, with those having an objective response marked from time of the first evidence of response until progression, while stable disease duration is marked from the start of treatment until progression. PFS and OS were defined from the start of treatment until an objective assessment of progression was determined (PFS) or death (OS).

[6] = 36 patients with objective response
[7] = any grade, 108 patients, 10 mg/kg
[8] = SG given as >3 line, no prior topotecan/irinotecan (N = 9)
[9] = SG given as >3 line, prior topotecan/irinotecan (N = 15)
[10] = patients resistant (N = 19) to 1st line
[11] = patients sensitive (N = 24) to 1st line

sacituzumab govitecan
CR (complete response) ([1]; 25 assessable patients): 1 patients
ORR ([1]; 25 assessable patients): 36%
PR (partial response) ([1]; 25 assessable patients): 8 patients
ORR, 1 line of prior chemotherapy ([1]; in vivo): 53.8%
ORR, two or more prior therapies ([1]; in vivo): 16.7%
median PFS ([1]; in vivo): 7.2 months
grade 4 non-hematologic toxicities ([2]; 6 patients): No grade 4 non-hematologic toxicities were observed
tolerability ([2]; 6 patients): generally well tolerated
patients with a clinically significant response ([2]; of 6 patients): 3 patients
patients with grade 3 toxicities (flank pain and bacteremia) ([2]; of 6 patients): Two
patients with progressive disease ([2]; of 6 patients): 3 patients
patients with partial response ([2]; of 6 patients, RECIST 1.1): Two
reduction in target lesions, patient with progressive disease because of a new lesion ([2]; one patient): 12%
reduction in target lesions, patient with stable disease ([2]; one patient): 28%
reduction in target lesions, best responder ([2]; partial response, including liver metastases): 38%
response rate among patients who had failed previous checkpoint inhibitor therapy ([3]; 10 mg/kg): 44%
median duration of response [3, 6]: 7.7 months
median time to response [3, 6]: 2.0 months
anemia, grade 3 ([3]; 108 patients, 10 mg/kg): 11%
complete responses (CR) ([3]; 108 patients, 10 mg/kg): 2.8%
decreased white blood cell count, grade 4 ([3]; 108 patients, 10 mg/kg): 3%
diarrhea, grade 3 ([3]; 108 patients, 10 mg/kg): 8%
fatigue, grade 3 ([3]; 108 patients, 10 mg/kg): 8%
hyperglycemia, grade 4 ([3]; 108 patients, 10 mg/kg): 1%
median overall survival ([3]; 108 patients, 10 mg/kg): 13.0 months
median progression-free survival ([3]; 108 patients, 10 mg/kg): 5.5 months
nausea, grade 3 ([3]; 108 patients, 10 mg/kg): 6%
neutropenia, grade 3 ([3]; 108 patients, 10 mg/kg): 26%
neutropenia, grade 4 ([3]; 108 patients, 10 mg/kg): 16%
vomiting, grade 3 ([3]; 108 patients, 10 mg/kg): 6%
response rate (CR+PR) ([3]; 108 patients, >=2 prior lines, 10 mg/kg, local assessment): 33.3%
anemia, % of patients [3, 7]: 50%
diarrhea, % of patients [3, 7]: 62%
fatigue, % of patients [3, 7]: 55%
nausea, % of patients [3, 7]: 67%
neutropenia, % of patients [3, 7]: 64%
vomiting, % of patients [3, 7]: 49%
patients with long-term responses of more than 12 months ([3]; as of data cutoff): 6 patients
estimated probability that a patient would exhibit a response ([3]; at 6 months): 59.7%
estimated probability that a patient would exhibit a response ([3]; at 12 months): 27.0%
patients who discontinued treatment due to adverse events ([3]; of 108 patients): Three
clearance of intact conjugate compared with the IgG ([4]; ELISA): cleared more quickly than the IgG
SN-38 in the serum bound to the IgG ([4]; HPLC, Unbound and TOTAL, non-glucuronidated form): > 95%
clearance of the conjugate from the serum ([4]; patients): ≤ 3 days
confirmed PR ([5]; 19 patients resistant to first-line platinum): 16%
confirmed PR ([5]; 24 patients sensitive to first-line platinum): 17%
PD, % ([5]; 43 assessable patients): (35%)
stable disease including unconfirmed PR ([5]; 43 assessable patients (21 patients)): 49%
treatment-related deaths ([5]; 53 patients): No treatment-related deaths were observed
OS, seven confirmed PR patients ([5]; 95% CI 6.2, 20.9): 9.2 months
OS, ten patients with SD >=4 months ([5]; 95% CI 7.5, 22.4): 8.3 months
median PFS, confirmed PR group ([5]; 95% CI 7.6, 21.9): 7.9 months
Duration of confirmed objective response, median ([5]; Kaplan-Meier, 95% CI 3.6, 19.9): 5.7 months
Clinical benefit rate (PR + SD >= 4 months), % ([5]; SG as >=3 line (N = 24)): (38%)
OS median ([5]; SG as >=3 line (N = 24)): 7.0 months
PFS median ([5]; SG as >=3 line (N = 24)): 3.7 months
Clinical benefit rate (PR + SD >= 4 months), % ([5]; SG as second line (N = 19)): (37%)
OS median ([5]; SG as second line (N = 19)): 8.1 months
PFS median ([5]; SG as second line (N = 19)): 3.6 months
Clinical benefit rate (PR + SD >= 4 months), % [5, 8]: (33%)
OS median [5, 8]: 5.5 months
PFS median [5, 8]: 3.7 months
Clinical benefit rate (PR + SD >= 4 months), % [5, 9]: (40%)
OS median [5, 9]: 8.8 months
PFS median [5, 9]: 3.8 months and 3.6 months
grade 3 or 4 anemia ([5]; human, in vivo): 8%
grade 3 or 4 diarrhea ([5]; human, in vivo): 9%
grade 3 or 4 fatigue ([5]; human, in vivo): 13%
grade 3 or 4 hyponatremia ([5]; human, in vivo): 8%
grade 3 or 4 increased alkaline phosphatase ([5]; human, in vivo): 8%
grade 3 or 4 neutropenia ([5]; human, in vivo): 34%
infusion-related reactions ([5]; human, in vivo): No infusion-related reactions were reported
patients with dose reduction ([5]; human, in vivo): 13%
Overall survival, median ([5]; intention-to-treat N = 53): 7.0 months
Progression-free survival, median ([5]; intention-to-treat N = 53): 3.6 months
duration of SD, patient with 17% tumor shrinkage ([5]; one patient with prior CPI): 8.7 months
duration of SD, patient with no change in tumor size ([5]; one patient with prior CPI): 3.7 months
tumor shrinkage, patient with SD ([5]; one patient with prior CPI): 17%
tumor shrinkage on first assessment, patient with unconfirmed PR ([5]; one patient with prior checkpoint inhibitor (CPI)): 54%
Clinical benefit rate (PR + SD >= 4 months), % [5, 10]: (26%)
OS median [5, 10]: 6.2 months
PFS median [5, 10]: 3.6 months
Clinical benefit rate (PR + SD >= 4 months), % [5, 11]: (50%)
OS median [5, 11]: 8.3 months
PFS median [5, 11]: 3.8 months
PR ([5]; second-line setting (3/19)): 16%
median time to response ([5]; seven confirmed PR, range 1.8 to 3.6): 2.0 months
confirmed PR ([5]; starting dose 8 mg/kg, 13 patients): 8%
CBR ([5]; starting dose 10 mg/kg (14/30)): 47%
confirmed PR ([5]; starting dose 10 mg/kg (N = 30)): 20%
Kaplan-Meier-derived median duration of SD ([5]; ten patients with SD >=4 months, 95% CI 5.2, 9.7): 5.6 months
confirmed PR ([5]; third or higher line (N = 24)): 16%
